In paper PMC2941613 (Indian Journal of Pharmacology, 2010):

Assays:
ob/ob mice = conditions: 10 mg/kg p.o.
Protocol: The DPP-IV inhibitors were administered to overnight fasted ob/ob mice for the above stated period, followed by oral glucose challenge (2 g/kg). Blood samples collected at 0, 15, 30, 60, and 120 min after glucose load were processed as described earlier and blood glucose concentrations measured using Biochemical AutoAnalyzer, Dimension AR (Dade Behring, USA). AUC0-120 min were calculated and the percent glucose excursion was estimated at different duration of treatment compared to vehicle.

[1] = Plasma levels of active GLP-1 and insulin (unpublished observations); assay type: in vivo

SMILES | Glucose lowering (glucose excursion, AUC0-120 min vs vehicle) at 8 h (ob/ob mice; OGTT 2 g/kg 8 h after dosing) | Reduction in AUCGlucose at 12 h (ob/ob mice; OGTT 2 g/kg 12 h after dosing) | Augmentation of plasma active GLP-1 [1] | Augmentation of plasma insulin [1]
N[C@@H](CC(=O)N1CCn2c(nnc2C(F)(F)F)C1)Cc1cc(F)c(F)cc1F [sitagliptin] | ~ 35% | -23% | twofold | twofold
N#C[C@@H]1CCCN1C(=O)CNC12CC3CC(CC(O)(C3)C1)C2 [vildagliptin] | – | – | twofold | twofold
